How the values were obtained:
[1] = test system: Toxoplasma gondii tachyzoites (strain RH, type I); test: Screening at 10 μM: T. gondii parasite growth inhibition in Vero cells (enzyme immunoassay); type: cell-based; conditions: for inhibition at 10 µM / parasite growth inhibition: 72 h, triplicate, 10 μM
Method: (§1) All the experiments were performed in triplicate. Compound screening was performed at 10 μM in 96-well plates. Thus, 20,000 Vero cells contained in 200 μL of culture medium were filled in each well and left to adhere for 4 h at 37 °C and 5% of CO2. Then, 50,000 parasites contained in 50 μL of culture medium were filled, followed by 3 h of incubation in the same conditions. Wells were then emptied and 100 μL of solutions containing each drug at a final concentration of 10 μM were added. Incubation continued for 72 h.
(§2) The IC50 assays were processed in the same conditions as previously described. Dilutions were performed in a culture medium. The IC50 was determined using an adapted protocol from Doliwa et al.. Parasites and cells were first fixed with 100 μL of cold methanol for 5 min at −20 °C. Cells were then rehydrated with 100 μL of PBS at room temperature. Wells were then emptied and filled with 60 μL of a solution of anti-T. gondii rabbit antibody (Ref. 9070-0556, Biorad) diluted at 1/1000. After 1 hour of incubation at 37 °C, wells were washed three times with PBS, and 60 μL of anti-rabbit IgG horseradish conjugated goat antibody (Ref. 170-6515, Bio-Rad) at 1/1000 were added, followed by 1 h of incubation at 37 °C. The wells were washed three more times, and 200 μL of a solution of o-phenylenediamine dihydrochloride (Sigma, France) was added. After 15 min at room temperature, the enzymatic reaction was stopped by the addition of 50 μL of hydrochloric acid (HCl) 3 M. To finish, 200 μL of each well were transferred to a new well and a spectrophotometer reading was performed at 492 nm, corrected at 630 nm. Each experiment was performed with three controls: control with host cells alone, control with host cells and parasites without the drug for parasite multiplication, and control with host cells with parasites and pyrimethamine at 1 μM.

[2] = test system: Toxoplasma gondii tachyzoites (strain RH, type I); test: Half maximal inhibitory concentration (IC50) on T. gondii (enzyme immunoassay); type: cell-based; conditions: for Selectivity index (SI): SI = CC50/IC50 (Vero cells / T. gondii); for IC50: Toxoplasma gondii, T. gondii RH in Vero cells, 72 h
Method: as §1, §2

Vero cells [3] = conditions: cited from earlier work
[4] = Cytotoxicity evaluation, Uptiblue viable cell-counting assay; conditions: African green monkey
Method: (§3) Vero cells (host cells of T. gondii tachyzoite) were purchased at ATCC (reference CCL-81), grown in Iscove Modified Dulbecco Media (IMDM) GlutaMAX medium (Gibco) supplemented with 5% decomplemented fetal calf serum with 1% penicillin/streptomycin. The culture was incubated at 37 °C and 5% CO2. Toxoplasma gondii tachyzoites (strain RH, type I) were grown in the same conditions as Vero cells except that the concentration of fetal calf serum was 2%.
(§4) The in vitro cytotoxicity was evaluated on Vero cell cultures using Uptiblue® viable cell-counting assay (Interchim, Montluçon, France). CC50 assays were performed in 96-well plates containing 20,000 Vero cells and 200 μL of culture medium identical to the one used for Vero cell maintenance. After 4 h of incubation, wells were emptied. The IC50 was performed with 100 μL of solutions containing the tested compounds with a final concentration range of 0–80 μM. After 72 h of incubation, wells were washed with 100 μL of phosphate-buffered saline (PBS) (Sigma-Aldrich, Saint-Quentin-Fallavier, France). Then, 100 μL of IMDM culture medium supplemented with 2% (v/v) of calf fetal serum and 10% (v/v) of Uptiblue® were added to each well. Plates were placed at 37 °C and 5% of CO2 for 3 h. Spectrophotometric measures were performed at 570 nm and corrected at 600 nm on an AMR-100 spectrophotometer (AllSheng, Hangzhou, China).

L. donovani = test system: L. donovani; parameters: method as in earlier work; conditions: 50 μM; cited from earlier work
[5] = test system: Plasmodium falciparum K1 strain; parameters: method as in PMID 21438586; conditions: cited from earlier work
Vero cells [6] = test: Cytotoxicity evaluation, Uptiblue viable cell-counting assay
Method: as §3, §4

Solubility in DMSO = type: physicochemical
Method: Stock solutions at 1 mg/mL were prepared in cell culture grade dimethyl sulfoxide (DMSO, PanReac AppliChem, Darmstadt, Germany). Subsequent dilutions were made in a culture medium identical to the one used for tachyzoite maintenance.

Vero cells [7] = test system: Vero cells; parameters: method as in PMID 20441162; conditions: cited from earlier work
T. gondii [8] = test system: T. gondii; parameters: method as in PMID 20441162; conditions: cited from earlier work
P. falciparum = test system: P. falciparum; parameters: method as in PMID 11239932; conditions: P. falciparum growth; cited from earlier work
T. gondii [9] = test system: T. gondii; parameters: method as in PMID 23776166; conditions: in vitro growth of T. gondii; cited from earlier work

Compound | inhibition at 10 µM ([1]; Toxoplasma gondii, Vero) [%] | Selectivity index (SI) [2] | IC50 [2] [µM] | CC50 at 72 h [4] [µM] | CC50 at 72 h ([4]; Vero cells (ATCC CCL-81)) [µM] | further results
C=C(C)[C@@H]1CC[C@]2(CO)CC[C@]3(C)[C@H](CC[C@@H]4[C@@]5(C)CC[C@H](O)C(C)(C)[C@@H]5CC[C@]43C)[C@@H]12 [Betulin (1), betulin] | 44 | >6.0 | 13.3 ± 7.3 | > 80 | – | CC50 (Vero cells [3]): 164 µM; inhibition of L. donovani (L. donovani): 35.0%
C=C(C)[C@@H]1CC[C@]2(C=O)CC[C@]3(C)[C@H](CC[C@@H]4[C@@]5(C)CC[C@H](O)C(C)(C)[C@@H]5CC[C@]43C)[C@@H]12 [Betulinaldehyde (2), betulinaldehyde] | 93 | >15.7 | 5.1 ± 0.6 | – | > 80 | –
C=C(C)[C@@H]1CC[C@]2(C(=O)O)CC[C@]3(C)[C@H](CC[C@@H]4[C@@]5(C)CC[C@H](O)C(C)(C)[C@@H]5CC[C@]43C)[C@@H]12 [Betulinic acid (3), betulinic acid] | 49 | >9.6 | 8.3 ± 2.7 | > 80 | – | inhibition of L. donovani (L. donovani): 39.8%
C=C(C)[C@@H]1CC[C@]2(CO)CC[C@]3(C)[C@H](CC[C@@H]4[C@@]5(C)CCC(=O)C(C)(C)[C@@H]5CC[C@]43C)[C@@H]12 [Betulone (4), betulone] | 99 | >29.6 | 2.7 ± 1.2 | > 80 | – | Selectivity index (SI) ([2]; listed as betulone): greater than 29; IC50 [5]: 3000 nM
C=C(C)C1CCC2(C(=O)O)CCC3(C)C(CCC4C5(C)CCC(=O)C(C)(C)C5CCC43C)C12 (stereo not drawn) [Betulonic acid (7), Betulonic acid] | – | >18.6 | 4.3 ± 1.4 | – | > 80 | cytotoxicity (Vero cells [6]; 80 μM on Vero cells): without cytotoxicity; inhibition of L. donovani (L. donovani): 97.6%
C=C(C)C1CCC2(C(=O)OC)CCC3(C)C(CCC4C5(C)CCC(=O)C(C)(C)C5CCC43C)C12 (stereo not drawn) [Betulonic acid methyl ester (8), betulonic acid methyl ester] | – | >25.8 | 3.1 ± 0.4 | > 80 | – | –
C=C(C)[C@@H]1CC[C@]2(C)CC[C@]3(C)[C@H](CC[C@@H]4[C@@]5(C)CCC(=O)C(C)(C)[C@@H]5CC[C@]43C)[C@@H]12 [Lupenone, lupenone] | – | – | – | – | – | solubility in DMSO (Solubility in DMSO): not soluble in DMSO
C=C(C)[C@@H]1CC[C@]2(C)CC[C@]3(C)[C@H](CC[C@@H]4[C@@]5(C)CC[C@H](O)C(C)(C)[C@@H]5CC[C@]43C)[C@@H]12 [Lupeol (5), lupeol] | 60 | >5.8 | 13.8 ± 4 | – | > 80 | –
CCc1nc(N)nc(N)c1-c1ccc(Cl)cc1 [Pyrimethamine (10), pyrimethamine, reference compound] | – | 38.0 | 0.7 ± 0.2 | – | 27.7 | inhibition at 1 µM ([1]; Toxoplasma gondii, Vero, 1 μM): 78%; cytotoxicity (Vero cells [6]; 10 μM): cytotoxic
CC1(C)CC[C@]2(C(=O)O)CC[C@]3(C)C(=CC[C@@H]4[C@@]5(C)C[C@@H](O)[C@H](O)C(C)(C)[C@@H]5CC[C@]43C)[C@@H]2C1 [maslinic acid] | – | – | – | – | – | LD50 (Vero cells [7]): 236.6 µM; LD50 (T. gondii [8]): 53.8 µM
Oc1cc(Cl)ccc1Oc1ccc(Cl)cc1Cl [triclosan] | – | – | – | – | – | IC50 (P. falciparum): 1000 nM; IC50 (T. gondii [9]): 3000 nM
β-sitostenone [β-sitostenone (9)] | – | – | – | – | – | parasite growth inhibition [1]: did not show any relevant activity; parasite growth inhibition ([1]; listed as β-sitostenone): no specific activity

Source: paper PMC8830292, “Anti-Toxoplasma gondii effect of lupane-type triterpenes from the bark of black alder (Alnus glutinosa) and identification of a potential target by reverse docking” (Parasite, 2022)
